Tested on: Oryctolagus cuniculus
Assay: Compound was evaluated for ocular hypotensive effects (intraocular pressure, IOP) by administering 0.5% of the drug twice daily
Assay type: functional, Eye

CC(C)(C)NC[C@H](O)COc1nsnc1N1CCOCC1 [TIMOLOL]
Activity: 21%
